In BindingDB's records for doi:10.1021/jm980551o (Novartis, 1999):
pIC50: −log10 of the molar value.

Assay: Inhibition of EGF-dependent mouse keratinocyte MK cell proliferation

pIC50: > 7.00
Compound: COc1cc2ncnc(Nc3cccc(Cl)c3)c2cc1OC
